Experiment [1] concerns SK-OV-3. The experiment is described as follows: Antiproliferative activity against human SK-OV-3 cells assessed as suppression ratio at 50 uM by enzyme-linked immunosorbent assay relative to control. Type of experiment: functional.
Experiment [2] has as its system U-87 MG. The experiment is described as follows: Antiproliferative activity against human U-87 MG cells assessed as suppression ratio at 5 uM by enzyme-linked immunosorbent assay relative to control. The class given is functional, U-87MG ATCC.
Experiment [3] deals with SK-OV-3. Put plainly: Antiproliferative activity against human SK-OV-3 cells assessed as suppression ratio at 5 uM by enzyme-linked immunosorbent assay relative to control. The class given is functional.
For experiment [4], the system named is U-87 MG. The experiment is described as follows: Antiproliferative activity against human U-87 MG cells assessed as suppression ratio at 50 uM by enzyme-linked immunosorbent assay relative to control. The class given is functional, U-87MG ATCC.
Experiment [5] has as its system U-87 MG. Put plainly: Anti-tumor activity against human U87 MG cells assessed as inhibition rate at 140 uM by CCK-8 assay relative to control. The class given is functional, U-87MG ATCC.
In experiment [6] the test system is SK-OV-3. Put plainly: Anti-tumor activity against human SK-OV-3 cells by CCK-8 assay. Type of experiment: functional, cell-based.
In experiment [7] the test system is U-87 MG. The experiment is described as follows: Anti-tumor activity against human U87 MG cells by CCK-8 assay. Type of experiment: functional, cell-based, U-87MG ATCC.
Experiment [8] relates to SK-OV-3. Put plainly: Anti-tumor activity against human SK-OV-3 cells assessed as inhibition rate at 140 uM by CCK-8 assay relative to control. Type of experiment: functional.

Each structure is given as a SMILES string.

`CC(C)n1cnc([N+](=O)[O-])c1COP(=O)(NCCBr)NCCBr`: the values for the inhibition at 50 µM in experiment [1] and in experiment [4] were 41% and 47%, respectively. Further, the values for the inhibition at 5 µM in experiment [2] and in experiment [3] were 16% and 4%, respectively.
Consider `CCCn1c(COP(=O)(NCCBr)NCCBr)cnc1[N+](=O)[O-]`, for which the inhibition at 140 µM in experiment [5] and in experiment [8] was 90% each time. Besides, the inhibition at 50 µM in experiment [1] was 77%; in experiment [4], 69%. The IC50 in experiment [6] was 42 µM; in experiment [7], 47 µM. In addition, the inhibition at 5 µM in experiment [2] is 30%; in experiment [3], -2%.
Consider `CCn1c(COP(=O)(NCCBr)NCCBr)cnc1[N+](=O)[O-]`, for which the inhibition at 50 µM in experiment [1] came out at 20%; in experiment [4], 31%. The inhibition at 5 µM was 25% in experiment [2] and -13% in experiment [3].
In the same order, the values of `CCCn1cnc([N+](=O)[O-])c1COP(=O)(NCCCl)NCCCl` are 8%, 15%, 5% and -5%.
With `CCn1cc(COP(=O)(NCCBr)NCCBr)nc1[N+](=O)[O-]`, the results for the inhibition at 50 µM in experiment [1] and in experiment [4] were 32% and 43%, respectively. For the same compound, the inhibition at 5 µM was 25% in experiment [2] and -3% in experiment [3].
As for `CC(C)n1c(COP(=O)(NCCBr)NCCBr)cnc1[N+](=O)[O-]`, the inhibition at 50 µM in experiment [1] stood at 10%; in experiment [4], 23%. Also, the inhibition at 5 µM in experiment [2] was 24%; in experiment [3] it was -15%.
In the same order, the values of `Cn1cnc([N+](=O)[O-])c1COP(=O)(NCCCl)NCCCl` are 4%, 22%, 13% and -38%.
On the same counts, the results for `CCn1cnc([N+](=O)[O-])c1COP(=O)(NCCCl)NCCCl` are -2%, 11%, 1% and -16%.
On the same counts, the results for `Cn1cc(COP(=O)(NCCBr)NCCBr)nc1[N+](=O)[O-]` are 48%, 32%, 16% and -14%.
For `CCCn1cnc([N+](=O)[O-])c1COP(=O)(NCCBr)NCCBr`, the inhibition at 50 µM in experiment [1] came to 52%; in experiment [4], 45%. Besides, the inhibition at 5 µM was -3% in experiment [2] and 3% in experiment [3].
As for `Cn1cnc([N+](=O)[O-])c1COP(=O)(NCCBr)NCCBr`, the inhibition at 50 µM in experiment [1] was 66%; in experiment [4] it was 55%. Further, the IC50 in experiment [6] amounted to 74 µM; in experiment [7] it was 98 µM. Besides, the values for the inhibition at 5 µM in experiment [2] and in experiment [3] were 17% and -4%, respectively.
Consider `CCCn1cc(COP(=O)(NCCBr)NCCBr)nc1[N+](=O)[O-]`, for which the inhibition at 50 µM worked out at 20% in experiment [1] and 35% in experiment [4]. Further, the values for the inhibition at 5 µM in experiment [2] and in experiment [3] were 21% and -32%, respectively.
`CC(C)n1cc(COP(=O)(NCCBr)NCCBr)nc1[N+](=O)[O-]`: the inhibition at 140 µM in experiment [5] and in experiment [8] was 90% throughout. Besides, the inhibition at 50 µM in experiment [1] and in experiment [4] was 68% throughout. For the same compound, the IC50 in experiment [6] is 32 µM; in experiment [7], 41 µM. Further, the inhibition at 5 µM was 30% in experiment [2] and -16% in experiment [3].
For `Cn1c(COP(=O)(NCCBr)NCCBr)cnc1[N+](=O)[O-]` [EVOFOSFAMIDE], the values for the inhibition at 50 µM in experiment [1] and in experiment [4] were 65% and 68%, respectively. Further, the IC50 in experiment [6] was found to be 62 µM; in experiment [7], 61 µM. Further, the inhibition at 5 µM was 9% in experiment [2] and 10% in experiment [3].
Take `CC(C)n1cnc([N+](=O)[O-])c1COP(=O)(NCCCl)NCCCl`: the inhibition at 50 µM is 16% in experiment [1] and 10% in experiment [4]. Also, the results for the inhibition at 5 µM in experiment [2] and in experiment [3] were 12% and 11%, respectively.
Take `CCn1cnc([N+](=O)[O-])c1COP(=O)(NCCBr)NCCBr`: the inhibition at 50 µM was 59% in experiment [1] and 39% in experiment [4]. Moreover, the inhibition at 5 µM is -3% in experiment [2] and -11% in experiment [3].
